Test results published in patent US20110065739A1, “NOVEL ISOXAZOLE DRIVATIVE” (priority 2008, published 2011).
Structures can show the parent of a compound that is named as a salt.

Molecular target: T1, human GPR120 (Homo sapiens, UniProt Q5NUL3)
T1 construct: expressed in transfected cells
T1 sequence (Q5NUL3 1-361): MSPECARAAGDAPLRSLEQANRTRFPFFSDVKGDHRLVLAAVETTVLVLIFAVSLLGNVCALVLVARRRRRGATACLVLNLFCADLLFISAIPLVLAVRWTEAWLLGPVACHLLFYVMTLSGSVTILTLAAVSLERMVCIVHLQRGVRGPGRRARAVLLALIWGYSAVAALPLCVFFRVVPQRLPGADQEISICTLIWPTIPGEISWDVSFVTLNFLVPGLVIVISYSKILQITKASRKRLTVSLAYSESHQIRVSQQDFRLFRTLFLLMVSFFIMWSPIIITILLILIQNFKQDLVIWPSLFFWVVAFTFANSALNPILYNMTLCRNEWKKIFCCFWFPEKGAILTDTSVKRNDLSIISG
Test: Measurement of intracellular calcium concentration (FLIPR), GPR120 agonist action
Type: cell-based
Settings: 10 μmol/l test compound, human GPR120 expression CHO cells, Fluo-4 AM
Description: Using Lipofectamine 2000 (Invitrogen), cDNA of GPR120 receptor was transfected into CHO/NFAT-BLA cells, and drug-resistant cells were isolated to obtain GPR120 stable expression strains. The GPR120-expressed CHO cells were cultured in DMEM/F12 medium containing 10% fetal bovine serum, 100 units/ml penicillin, 0.1 mg/ml streptomycin sulfate, 250 μg/ml Zeocin, 500 μg/mL Geneticin and 15 mM HEPES. On the day before the measurement day, 4 μM Fluo-4 AM (fluorescence calcium indicator reagent) was incubated to be introduced into the human GPR120 expression CHO cells plated at 20000 cells per well of a 96-well black plate (ViewPlate; Packard) in the presence of 2.5 mM probenecid in a CO2 incubator for 1 hour. To the cells was added the test compound diluted with HBSS solution containing 20 mM HEPES and 2.5 mM probenecid. Variations in the intracellular calcium concentration were measured by Fluorescence Imaging Plate Reader (FLIPR; Molecular Devices) to examine the agonist action, and EC50 values were calculated.

Row | Compound | Agonistic activity at 10 μmol/l (%)
1 | CC(Cc1ccc(-c2cc(O)no2)cc1)Oc1cccc(OC(F)(F)F)c1 (centres unmarked) [Example 19] | 96
2 | 5-{4-[(2,2-difluoro-2-{3-[(1-methylethyl)oxy]phenyl}ethyl)oxy]phenyl}isoxazol-3-ol [Example 30] | 91
3 | 5-{4-[(2-fluoro-2-{3-[(1-methylethyl)oxy]phenyl}ethyl)oxy]phenyl}isoxazol-3-ol [Example 31] | 93
4 | CC(Cc1ccc(-c2cc(O)no2)cc1)Oc1ccc(Cl)cc1 (centres unmarked) [Example 16, 5-(4-(2-(4-chlorophenoxy)propyl)phenyl)isoxazol-3-01] | 96
5 | CC(C)Oc1cccc(CC(C)Oc2ccc(-c3cc(O)no3)c(F)c2)c1 (centres unmarked) [Example 6, 5-{2-fluoro-4-[2-(3-isopropoxyphenyl)-1-methylethoxy]phenyl}isoxazol-3-01] | 98
6 | 5-(4-(2-(3-ethylphenyl)-1-methylethoxy)phenyl)isoxazol-3-ol [Example 35] | 98
7 | N-[4-(3-hydroxyisoxazol-5-yl)benzyl]-3-isopropoxy-N-methylbenzenesulfonamide [Example 51] | 77
8 | CC(Cc1ccc(-c2cc(O)no2)cc1)Oc1ccc(Cl)cc1Cl (centres unmarked) [Example 18, 5-(4-(2-(2,4-dichlorophenoxy)propyl)phenyl)isoxazol-3-01] | 97
9 | C[C@H](Cc1cccc(OC2CC2)c1)Oc1ccc(-c2cc(O)no2)cc1 [Example 22, 5-[4-({(1R)-1-methyl-2-[3-(cyclopropyloxy)phenyl]-1-methylethyl]oxy)phenyl}isoxazol-3-ol] | 93
10 | CC(C)Oc1cccc(C[C@@H](C)Oc2ncc(-c3cc(O)no3)cn2)c1 [Example 32, 5-{2-[((1R)-1-methyl-2-{3-[(1-methylethyl)oxy]phenyl}ethyl)oxy]pyrimidin-5-yl}isoxazol-3-01] | 91
11 | CC(C)Oc1cccc(C(C)(C)COc2ccc(-c3cc(O)no3)cn2)c1.O=C(O)C(F)(F)F [Example 44] | 99
12 | CC(C)Oc1cc(CC(C)Oc2ccc(-c3cc(O)no3)cc2)ccn1.Cl (centres unmarked) [Example 62] | 99
13 | N-[4-(3-hydroxyisoxazol-5-yl)benzyl]-3-isopropoxy-N-methylaniline [Example 65] | 76
14 | CC(C)Cc1cccc(CC(C)Oc2ccc(-c3cc(O)no3)cc2)c1 (centres unmarked) [Example 53, 5-{4-[2-(3-isobutylphenyl)-1-methylethoxy]phenyl}isoxazol-3-01] | 100
15 | Cc1cccc(OC(C)Cc2ccc(-c3cc(O)no3)cc2)c1 (centres unmarked) [Example 11, 5-(4-(2-(3-methylphenoxy)propyl)phenyl)isoxazol-3-01] | 91
16 | 5-(4-(2-(3-isopropoxyphenyl)propoxy)phenyl)-isoxazol-3-ol [Example 33] | 84
17 | 5-(4-(2-(4-methylphenoxy)propyl)phenyl)isoxazol-3-ol [Example 14] | 101

Same assay, conditions: 10 μmol/l test compound, human GPR120 expression CHO cells, Fluo-4 AM, read-out: Agonistic activity at 10 μmol/l (%)

Row | Compound | activation at 10 µM [%]
18 | CC(C)Oc1cc(C[C@@H](C)Oc2ccc(-c3cc(O)no3)cc2)ccn1 [Example 64, 5-(4-(((1R)-1-methyl-2-(2-((1-methylethyl)oxy)pyridin-4-yl)ethyl)oxy)phenyl)isoxazol-3-ol Sodium Salt] | 104
19 | COc1cc(-c2cc(O)no2)ccc1OC(C)Cc1cccc(OC(C)C)c1 (centres unmarked) [Example 61, 5-{4-[2-(3-isopropoxyphenyl)-1-methylethoxy]-3-methoxyphenyl}isoxazol-3-ol] | 79
20 | CCOc1cccc(CC(C)Oc2ccc(-c3cc(O)no3)cc2F)c1 (centres unmarked) [Example 56, 5-{4-[2-(3-ethoxyphenyl)-1-methylethoxy]-3-fluorophenyl}isoxazol-3-ol] | 96
21 | C[C@H](Cc1ccc(OC(F)(F)F)cc1)Oc1ccc(-c2cc(O)no2)cc1 [Example 24, 5-{4-[((1R)-1-methyl-2-{4-[(trifluoromethyl)oxy]phenyl}ethyl)oxy]phenyl}isoxazol-3-ol] | 86
22 | CC(C)Oc1cccc(C[C@@H](C)Oc2ccc(-c3cc(O)no3)cn2)c1 [Example 26, 5-{6-[((1R)-1-methyl-2-{3-[(1-methylethyl)oxy]phenyl}ethyl)oxy]pyridin-3-yl}isoxazol-3-ol Hydrochloride] | 100
23 | CC(C)Oc1cccc(C(F)COc2ccc(-c3cc(O)no3)cc2)c1 (centres unmarked) [Example 29, 5-{4-[(2-fluoro-2-{3-[(1-methylethyl)oxy]phenyl}ethyl)oxy]phenyl}isoxazol-3-ol] | 102
24 | COc1cc(OC)cc(OC(C)Cc2ccc(-c3cc(O)no3)cc2)c1 (centres unmarked) [Example 15, 5-(4-(2-(3,5-dimethoxyphenoxy)propyl)phenyl)isoxazol-3-ol] | 97
25 | CC(C)Oc1cccc(C(C)SCc2ccc(-c3cc(O)no3)cc2)c1 (centres unmarked) [Example 50, 5-[4-({[1-(3-isopropoxyphenyl)ethyl]thio}methyl)phenyl]isoxazol-3-ol] | 80
26 | CC(C)Oc1cccc(C[C@H](C)Oc2ccc(-c3cc(O)no3)cc2)c1 [Example 21, 5-{4-[((1S)-1-methyl-2-{3-[(1-methylethyl)oxy]phenyl}ethyl)oxy]phenyl}isoxazol-3-ol] | 95
27 | CC(C)Oc1cccc(C[C@H](C)Oc2ccc(-c3cc(O)no3)cn2)c1 [Example 27, 5-{6-[((1S)-1-methyl-2-{3-[(1-methylethyl)oxy]phenyl}ethyl)oxy]pyridin-3-yl}isoxazol-3-ol Hydrochloride] | 99
28 | COc1cccc(OC(C)Cc2ccc(-c3cc(O)no3)cc2)c1 (centres unmarked) [Example 12, 5-(4-(2-(3-methoxyphenoxy)propyl)phenyl)isoxazol-3-ol] | 95
29 | CC(C)Oc1cccc(C(C)COc2ccc(-c3cc(O)no3)cn2)c1 (centres unmarked) [Example 40, 5-(6-(2-(3-isopropoxyphenyl)propoxy)pyridin-3-yl)isoxazol-3-ol] | 95
30 | CC(Cc1ccc(-c2cc(O)no2)cc1)Oc1ccccc1 (centres unmarked) [Example 10, 5-(4-(2-phenoxypropyl)phenyl)isoxazol-3-ol] | 93
31 | CC(C)Oc1cccc(CC(C)Oc2ccc(-c3cc(O)no3)cc2)c1 (centres unmarked) [Example 1, 5-(4-(2-(3-isopropoxyphenyl)-1-methylethoxy)phenyl)isoxazol-3-ol] | 104
32 | CC(C)Oc1cccc(CC(C)Oc2ccc(-c3cc(O)no3)cn2)c1 (centres unmarked) [Example 7, 5-(6-(2-(3-isopropoxyphenyl)-1-methylethoxy)pyridin-3-yl)isoxazol-3-ol] | 98
33 | CC(C)Oc1cccc(CN(C)C(C)c2ccc(-c3cc(O)no3)cc2)c1 (centres unmarked) [Example 49, 1-[4-(3-hydroxyisoxazol-5-yl)phenyl]-N-(3-isopropoxybenzyl)-N-methylethanamine Trifluoroacetate] | 84
34 | CC(C)Oc1cccc(C(C)(C)COc2ccc(-c3cc(O)no3)cc2)c1 [Example 5, 5-(4-(2-methyl-2-(3-isopropoxyphenyl)propoxy)phenyl)-isoxazol-3-ol] | 94
35 | CC(C)Oc1cccc(CCN(C)c2ccc(-c3cc(O)no3)cc2)c1 [Example 60, 4-(3-hydroxyisoxazol-5-yl)-N-[2-(3-isopropoxyphenyl)ethyl]-N-methylaniline Trifluoroacetate] | 65
36 | CC(C)Oc1cccc(N(C)C(C)Cc2ccc(-c3cc(O)no3)cc2)c1 (centres unmarked) [Example 58, 5-(4-{2-[(3-isopropoxyphenyl)(methyl)amino]propyl}phenyl)isoxazol-3-ol] | 91
37 | COc1cccc(C(F)(F)COc2ccc(-c3cc(O)no3)cc2)c1 [Example 3, 5-(4-(2,2-difluoro-2-(3-methoxyphenyl)ethoxy)phenyl)isoxazol-3-ol] | 105
38 | CC(C)Oc1cccc(C(=O)COc2ccc(-c3cc(O)no3)cc2)c1 [Example 42, 2-[4-(3-hydroxyisoxazole-5-yl)phenoxy]-1-(3-isopropoxyphenyl)ethanone] | 98
39 | CC(C)Oc1cccc(C(F)(F)COc2ccc(-c3cc(O)no3)c(F)c2)c1 [Example 57, 5-{4-[2,2-difluoro-2-(3-isopropoxyphenyl)ethoxy]-2-fluorophenyl}isoxazol-3-ol] | 98
40 | CC(Cc1ccc(-c2cc(O)no2)cc1)Oc1cccc(C(F)(F)F)c1 (centres unmarked) [Example 13, 5-(4-(2-(3-(trifluoromethyl)phenoxy)propyl)phenyl)isoxazol-3-ol] | 93
41 | C[C@H](Cc1cccc(OC(F)(F)F)c1)Oc1ccc(-c2cc(O)no2)cc1 [Example 23, 5-{4-[((1R)-1-methyl-2-{3-[(trifluoromethyl)oxy]phenyl}ethyl)oxy]phenyl}isoxazol-3-ol] | 101
